In brackets after ≈: the same amount, converted by molar mass.
Key:
[1] = system: E. coli NIH JC-2 (IFO 12734); test: Minimum inhibitory concentration (MIC), standard method of the Japan Society of Chemotherapy; assay type: cell-based; settings: Escherichia coli, IFO12734
Experimental: (§1) With respect to certain representative compounds among the compounds [I] of the present invention, their minimum inhibitory concentrations (MIC; μg/ml) were measured in accordance with the standard method established by the Japan Society of Chemotherapy [CHEMOTHERAPY, 29(1), 76-79 (1981]. The results are summarized in Table 1, in which the compound numbers are as shown in examples.

P. aeruginosa (IFO 3445) = test: as above; assay type: cell-based; settings: Pseudomonas aeruginosa, IFO3445
Experimental: as §1

[2] = system: S. aureus 209 P (IFO 12732); test: as above; assay type: cell-based; settings: Staphylococcus aureus, IFO12732
Experimental: as §1

[3] = Partition coefficient, phosphate buffer/n-octanol; assay type: physicochemical; settings: 50 mM phosphate buffer (pH 7.4, μ=0.15)/n-octanol
Experimental: Following the method proposed by Akira Tsuji et al. in Antimicrob. Agents Chemother., 32. 190-194 (1988), 50 mM phosphate buffer (pH 7.4, μ=0.15)/n-octanol partition coefficients were measured.

| MIC [1] | MIC (P. aeruginosa (IFO 3445)) | MIC [2] | logD [3] | SMILES |
| --- | --- | --- | --- | --- |
| 0.39 µg/mL | 3.13 µg/mL | 3.13 µg/mL | – | Cl.O=C(O)c1cn(C2CC2)c2cc(OC3CCNC3)c(F)cc2c1=O (centres unmarked) [Compound 1, 7-(3-Pyrrolidinyloxy)-1-cyclopropyl-6-fluoro-1,4-dihydro-4-oxoquinoline-3-carboxylic acid hydrochloride] |
| 0.2 µg/mL | 0.78 µg/mL | 0.78 µg/mL | – | Cl.O=C(O)c1cn(C2CC2)c2c(F)c(OC3CCNC3)c(F)cc2c1=O (centres unmarked) [Compound 2, 7-(3-Pyrrolidinyloxy)-1-cyclopropyl-6,8-difluoro-1,4-dihydro-4-oxoquinoline-3-carboxylic acid hydrochloride] |
| 0.1 µg/mL | 0.78 µg/mL | 0.39 µg/mL | – | Cl.Nc1c(F)c(OC2CCNC2)c(F)c2c1c(=O)c(C(=O)O)cn2C1CC1 (centres unmarked) [Compound 8, 7-(3-Pyrrolidinyloxy)-1-cyclopropyl-5-amino-6,8-difluoro-1,4-dihydro-4-oxoquinoline-3-carboxylic acid hydrochloride] |
| 1.25 µg/mL | 25 µg/mL | 1.56 µg/mL | – | CC1COc2c(OC3CCNC3)c(F)cc3c(=O)c(C(=O)O)cn1c23.Cl (centres unmarked) [Compound 9, 10-(3-Pyrrolidinyloxy)-9-fluoro-2,3-dihydro-3-methyl-7-oxo-7H-pyrido[1,2,3-de][1,4]-benzoxazine-6-carboxylic acid hydrochloride] |
| 0.78 µg/mL | 3.13 µg/mL | 1.56 µg/mL | – | Cl.O=C(O)c1cn(-c2ccc(F)cc2F)c2nc(OC3CCNC3)c(F)cc2c1=O (centres unmarked) [Compound 10, 7-(3-Pyrrolidinyloxy)-1-(2,4-difluorophenyl)-6-fluoro-1,4-dihydro-4-oxo-1,8-naphthyridine-3-carboxylic acid hydrochloride] |
| 0.78 µg/mL (≈ 2.24 µM) | 12.5 µg/mL (≈ 35.9 µM) | 1.56 µg/mL (≈ 4.48 µM) | – | CCn1cc(C(=O)O)c(=O)c2cc(F)c(OC3CCN(C)CC3)cc21 [Compound 11, 7-(1-Methyl-4-piperidyloxy)-1-ethyl-6-fluoro-1,4-dihydro-4-oxoquinoline-3-carboxylic acid] |
| 1.56 µg/mL (≈ 4.14 µM) | 12.5 µg/mL (≈ 33.2 µM) | 1.56 µg/mL (≈ 4.14 µM) | – | CC1COc2c(OC3CCN(C)CC3)c(F)cc3c(=O)c(C(=O)O)cn1c23 (centres unmarked) [Compound 12, 10-(1-Methyl-4-piperidyloxy)-9-fluoro-2,3-dihydro-3-methyl-7-oxo-7H-pyrido[1,2,3-de][1,4]-benzoxazine-6-carboxylic acid] |
| – | – | – | -0.693 | Nc1c(F)c(OC2CCNCC2)c(F)c2c1c(=O)c(C(=O)O)cn2C1CC1 [Compound 19] |
| 0.2 µg/mL (≈ 0.628 µM) | 0.78 µg/mL (≈ 2.45 µM) | 0.1 µg/mL (≈ 0.314 µM) | – | O=C(O)c1cn(C2CC2)c2cc(N3CCOC3)c(F)cc2c1=O [Compound 57, 1-Cyclopropyl-6-fluoro-7-(3-oxazolidinyl)-1,4-dihydro-4-oxoquinoline-3-carboxylic acid] |
| 0.78 µg/mL (≈ 2.55 µM) | 6.25 µg/mL (≈ 20.4 µM) | 0.39 µg/mL (≈ 1.27 µM) | – | CCn1cc(C(=O)O)c(=O)c2cc(F)c(N3CCOC3)cc21 [Compound 58] |
| 0.2 µg/mL (≈ 0.602 µM) | 0.78 µg/mL (≈ 2.35 µM) | 0.1 µg/mL (≈ 0.301 µM) | – | CC1CN(c2cc3c(cc2F)c(=O)c(C(=O)O)cn3C2CC2)CO1 (centres unmarked) [Compound 59] |
| 0.2 µg/mL (≈ 0.533 µM) | 1.56 µg/mL (≈ 4.16 µM) | 0.2 µg/mL (≈ 0.533 µM) | – | CN(C)CC1CN(c2cc3c(cc2F)c(=O)c(C(=O)O)cn3C2CC2)CO1 (centres unmarked) [Compound 60] |
| – | – | – | -0.316 | CCOC(=O)c1cn(C2CC2)c2c(F)c(N3COC(CN(C)C)C3)c(F)cc2c1=O (centres unmarked) [Compound 64] |
| 0.2 µg/mL (≈ 0.595 µM) | 1.56 µg/mL (≈ 4.64 µM) | 0.2 µg/mL (≈ 0.595 µM) | – | O=C(O)c1cn(C2CC2)c2c(F)c(N3CCOC3)c(F)cc2c1=O [Compound 66, 1-Cyclopropyl-6,8-difluoro-7-(3-oxazolidinyl)-1,4-dihydro-4-oxoquinoline-3-carboxylic acid] |
| 0.2 µg/mL (≈ 0.571 µM) | 0.78 µg/mL (≈ 2.23 µM) | 0.1 µg/mL (≈ 0.285 µM) | – | CC1CN(c2c(F)cc3c(=O)c(C(=O)O)cn(C4CC4)c3c2F)CO1 (centres unmarked) [Compound 67] |
| 0.78 µg/mL (≈ 2.23 µM) | 3.13 µg/mL (≈ 8.93 µM) | 0.2 µg/mL (≈ 0.571 µM) | – | CC1COCN1c1c(F)cc2c(=O)c(C(=O)O)cn(C3CC3)c2c1F (centres unmarked) [Compound 68] |
| 0.2 µg/mL (≈ 0.508 µM) | 1.56 µg/mL (≈ 3.97 µM) | 0.2 µg/mL (≈ 0.508 µM) | – | CN(C)CC1CN(c2c(F)cc3c(=O)c(C(=O)O)cn(C4CC4)c3c2F)CO1 (centres unmarked) [Compound 69] |
| 0.39 µg/mL (≈ 1.1 µM) | 3.13 µg/mL (≈ 8.83 µM) | 0.2 µg/mL (≈ 0.565 µM) | – | O=C(O)c1cn(C2CC2)c2c(F)c(N3CCOC3)c(F)c(F)c2c1=O [Compound 72, 1-Cyclopropyl-5,6,8-trifluoro-7-(3-oxazolidinyl)-1,4-dihydro-4-oxoquinoline-3-carboxylic acid] |
| 0.1 µg/mL (≈ 0.273 µM) | 0.78 µg/mL (≈ 2.13 µM) | 0.1 µg/mL (≈ 0.273 µM) | – | O=C(O)c1cn(C2CC2)c2c(F)c(N3COC(CO)C3)c(F)cc2c1=O (centres unmarked) [Compound 74, 1-Cyclopropyl-6,8-difluoro-7-(5-hydroxymethyl-3-oxazolidinyl)-1,4-dihydro-4-oxoquinoline-3-carboxylic acid] |
| 0.39 µg/mL (≈ 1.11 µM) | 3.13 µg/mL (≈ 8.93 µM) | 0.39 µg/mL (≈ 1.11 µM) | – | O=C(O)c1cn(C2CC2)c2c(F)c(N3CCCOC3)c(F)cc2c1=O [Compound 76, Cyclopropyl-6,8-difluoro-7-(tetrahydro-1,3-oxazin)-3-yl-1,4-dihydro-4-oxoquinoline-3-carboxylic acid] |
